Experimental data reported in US20050158271A1, “Pharmaceutical applications of hydrotropic polymer micelles” (priority 2000, published 2005).
≈ marks a conversion by molar mass, not a printed value.

Key:
[1] = Aqueous solubility of paclitaxel (intrinsic, clinical vehicle, hydrotropic agents)
Text: The molecular structures of these hydrotropic agents are shown below.

HT-29 = experiment: Antitumor cytotoxicity (ED50), HT-29; format: cell-based; conditions: HT-29 tumor cell line
Description: (§1) The antitumor cytotoxicities, as measured by ED50, of polymeric micelles on various cell lines were measured as shown in Table 7. […] Free paclitaxel and doxorubicin in ethanol were used as positive controls. The ED50 values of hydrotropic micelles are much lower than PLA-PEG and PPA-PEG micelles.

MDA231 = experiment: Antitumor cytotoxicity (ED50), MDA231; format: cell-based; conditions: MDA231 tumor cell line
Description: as §1

MCF-7 = experiment: Antitumor cytotoxicity (ED50), MCF-7; format: cell-based; conditions: MCF-7 tumor cell line
Description: as §1

SKOV-3 = experiment: Antitumor cytotoxicity (ED50), SKOV-3; format: cell-based; conditions: SKOV-3 tumor cell line
Description: as §1

[2] = 50:50 mixture of Cremophore EL and dehydrated ethanol, diluted in isotonic saline; cited from earlier work

For `O=C([O-])c1ccccc1O.[Na+]` [sodium salicylate, Sodium salicylate], the “hydrotropic property for paclitaxel (ability to increase aqueous paclitaxel solubility)” value ([1]; hydrotrope screening, in words) was “excellent hydrotropes for paclitaxel”.
With `CC(=O)O[C@H]1C(=O)[C@@]2(C)[C@H]([C@H](OC(=O)c3ccccc3)[C@]3(O)C[C@H](OC(=O)[C@H](O)[C@@H](NC(=O)c4ccccc4)c4ccccc4)C(C)=C1C3(C)C)[C@]1(OC(C)=O)CO[C@@H]1C[C@@H]2O` [Paclitaxel, paclitaxel] the “increase in aqueous solubility over the intrinsic solubility” value [1] was 5˜6 orders of magnitude, the “ED50 HT-29” value (HT-29) was 0.003 µg/mL (≈ 0.00351 µM) and the “ED50 MDA231” value (MDA231) was 0.033 µg/mL (≈ 0.0386 µM). For the same compound, the “ED50 MCF-7” value (MCF-7) was 0.043 µg/mL (≈ 0.0504 µM), the “ED50 SKOV-3” value (SKOV-3) was 0.006 µg/mL (≈ 0.00703 µM) and the “paclitaxel solubility in formulation” value [2] was at most 1200 µg/mL.
For `COc1cccc2c1C(=O)c1c(O)c3c(c(O)c1C2=O)C[C@@](O)(C(=O)CO)C[C@@H]3O[C@H]1C[C@H](N)[C@H](O)[C@H](C)O1` [Doxorubicin], the “ED50 HT-29” value (HT-29) was 0.044 µg/mL (≈ 0.081 µM), the “ED50 MDA231” value (MDA231) was 0.050 µg/mL (≈ 0.092 µM) and the “ED50 MCF-7” value (MCF-7) was 0.773 µg/mL (≈ 1.42 µM). The “ED50 SKOV-3” value (SKOV-3) was 0.611 µg/mL (≈ 1.12 µM).
